Data from publication PMC10855334, “Molecular and Functional Characterization of Three General Odorant-Binding Protein 2 Genes in Cydia pomonella (Lepidoptera: Tortricidae)” (International Journal of Molecular Sciences, 2024).

Key:
[1] = biological target: CpomGOBP2c (Cydia pomonella); assay: Fluorescence competitive binding assay (1-NPN probe), recombinant CpomGOBP2c; conditions: 2.0 µM protein in 50 mM Tris-HCl pH 7.4 titrated with 1-NPN, read-out: dissociation constant with 1-NPN
From the text: (§1) The proteins were recombinantly expressed using an Escherichia coli expression system with an N-His tag. The complete coding regions lacking the signal peptide sequence of CpomGOBP2a, CpomGOBP2b, and CpomGOB2c were subcloned into the NdeI/EcoRI restricted and dephosphorylated pET-28b expression vector. The constructed plasmid was subsequently transformed into E. coli BL21 (DE3) competent cells for further expression. The size and purity of the target proteins were confirmed using sodium dodecyl sulfate-polyacrylamide gel electrophoresis (SDS-PAGE) and Western blot. The proteins were stored at −80 °C for subsequent fluorescence competitive binding experiments.
(§2) Fluorescence competitive binding assays were conducted on a Synergy4 (BioTek Instruments, Winooski, VT, USA) microplate reader using the F96 Black ELIAS Plate (Xinyou Biotechnology, Hangzhou, China). Probe 1-NPN and the tested ligands were dissolved in spectrophotometric-grade methanol to generate 1.0 mM stock solutions. The fluorescence probe 1-NPN was excited at 337 nm, and emission spectra were recorded between 390 and 490 nm. Initially, to test the binding constants of 1-NPN to the CpomGOBP2, a 2.0 µM solution of protein in 50 mM Tris-HCl (pH = 7.4) was titrated with 1 mM of 1-NPN to achieve various concentrations. […] After 2 min of odorant addition, the fluorescence intensity was measured and documented. […]

CpomGOBP2b = CpomGOBP2b (Cydia pomonella, UniProt J7GAV3); assay: Fluorescence competitive binding assay (1-NPN probe), recombinant CpomGOBP2b; conditions: 2.0 µM protein in 50 mM Tris-HCl pH 7.4 titrated with 1-NPN, read-out: dissociation constant with 1-NPN
CpomGOBP2b, sequence (J7GAV3 entry or part of it): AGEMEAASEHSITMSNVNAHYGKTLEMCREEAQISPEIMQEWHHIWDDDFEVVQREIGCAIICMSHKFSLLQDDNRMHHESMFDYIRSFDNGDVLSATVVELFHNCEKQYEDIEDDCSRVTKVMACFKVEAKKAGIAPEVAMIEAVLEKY
From the text: as §1, §2

CpomGOBP2a = CpomGOBP2a (Cydia pomonella, UniProt J7G4I1); assay: Fluorescence competitive binding assay (1-NPN probe), recombinant CpomGOBP2a; conditions: for Ki: 2.0 µM protein and 2.0 µM 1-NPN, 50 mM Tris-HCl pH 7.4, competitor 2-20 µM, read-out: dissolution constants (Ki)
CpomGOBP2a, sequence (J7G4I1 entry or part of it): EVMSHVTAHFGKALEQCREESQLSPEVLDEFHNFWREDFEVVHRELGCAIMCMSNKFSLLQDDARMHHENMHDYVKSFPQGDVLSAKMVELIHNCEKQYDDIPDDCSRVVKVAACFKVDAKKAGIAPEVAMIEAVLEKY
From the text: as §1
Fluorescence competitive binding assays were conducted on a Synergy4 (BioTek Instruments, Winooski, VT, USA) microplate reader using the F96 Black ELIAS Plate (Xinyou Biotechnology, Hangzhou, China). Probe 1-NPN and the tested ligands were dissolved in spectrophotometric-grade methanol to generate 1.0 mM stock solutions. The fluorescence probe 1-NPN was excited at 337 nm, and emission spectra were recorded between 390 and 490 nm. Initially, to test the binding constants of 1-NPN to the CpomGOBP2, a 2.0 µM solution of protein in 50 mM Tris-HCl (pH = 7.4) was titrated with 1 mM of 1-NPN to achieve various concentrations. Next, the competitive binding of each odorant (Table 1) was examined using 1-NPN as a fluorescent reporter and the odorant as a competitor. The concentrations of protein and 1-NPN were both 2.0 µM; the odorant was included after the protein and 1-NPN were added into the well of the ELIAS Plate for 2 min. The final concentrations of each competitor were 2, 4, 6, 8, 10, 12, 14, 16, 18, and 20 µM. After 2 min of odorant addition, the fluorescence intensity was measured and documented. The volume of mixed solution in each well was maintained at 250 µL. Each interaction was conducted in triplicate.

CpomGOBP2c (Cydia pomonella), sequence (J7GAV3 entry or part of it): as the sequence (J7GAV3 entry or part of it) above

| Ki (CpomGOBP2a) [µM] | Structure (SMILES) | Kd [1] [µM] | Kd (CpomGOBP2b) [µM] | Kd (CpomGOBP2a; 2.0 µM protein in 50 mM Tris-HCl pH 7.4 titrated with 1-NPN, read-out: dissociation constant with 1-NPN) [µM] |
| --- | --- | --- | --- | --- |
|  | c1ccc(Nc2cccc3ccccc23)cc1 [1-NPN] | 18.9 | 27.5 | 12.6 |
| 8.6 | CCCCCCCC(=O)OCCCC [butyl octanoate] |  |  |  |
| 22.7 | C/C=C/C=C/CCCCCCCO [codlemone] |  |  |  |
| 9.15 | CCCCC/C=C\C=C\C(=O)OCC [ethyl (2E,4Z)-deca-2,4-dienoate] |  |  |  |
| 22.9 | CC(=O)CC/C=C(\C)CCC=C(C)C [geranylacetone] |  |  |  |
